Laboratory results from EP1561465A2, “Methods of use of fluoroquinolone compounds against bacteria” (LG Life Sciences, Ltd., priority 1999, dated 2001).
Converted amounts (≈) assume the structure as drawn. “And” between values parts separate entries of the source, which are not always exact repeats. Equal values may be shown once. Read-outs that look alike come from different tables or passages of the source.

Assays:
[1] = system: Streptococcus pneumoniae; experiment: MIC by E-test (broth microdilution for gemifloxacin), 107 pneumococcal carrier isolates, Athens 1998; assay type: cell-based; conditions: E-test; for MIC Range: in µg/mL (unit assumed)
Protocol: Susceptibility testing was performed by agar dilution or epsilometer method (E-test), as recommended by the NCCLS. […] The susceptibility profiles of the strains were assessed using the Epsilometer method (E-test). The isolates were subdivided into two groups according to their penicillin susceptibility patterns (penicillin-susceptible and penicillin-intermediate.

[2] = system: Streptococcus pneumoniae; experiment: MIC by agar dilution (NCCLS), 411 isolates Buenos Aires 1998-99; assay type: cell-based; conditions: Streptococcus pneumoniae, S. pneumoniae, read-out: MIC90
[3] = system: Staphylococcus aureus; experiment: MIC by agar macrodilution (NCCLS), 373 Gram positive isolates, Athens 1998; assay type: cell-based; conditions: Methicillin-susceptible Staphylococcus aureus (n = 85)
[4] = system: Aeromonas spp.; experiment: MIC by agar dilution (NCCLS M7-A4), 288 enteropathogenic isolates, eight quinolones; assay type: cell-based
[5] = system: Hafnia alvei; experiment: MIC by agar dilution (NCCLS M7-A4), 288 enteropathogenic isolates, gemifloxacin and 15 other antimicrobials; assay type: cell-based; conditions: Hafnia alvei
[6] = system: Shigella spp.; experiment: as above; assay type: cell-based; conditions: Shigella spp. N= 21
Protocol: [A. hydrophila (12), and A. sobria (4)], and 91 Campylobacter jejuni. […] The strains were stored in skimmed-milk at -80 °C until studied.
The plates were incubated aerobically at 35 °C for 24 h, except for Campylobacter jejuni, where a microaerophilic atmosphere was obtained by using Campy Pack (Becton Dickinson, Cockeysville, MD, USA), and incubation was for 48 h. All organisms were tested with an inoculum of ≅ 10^4 cfu/spot. MICs were defined as the lower antibiotic concentration with no visible growth.

[7] = system: Salmonella spp.; experiment: MIC by agar dilution (NCCLS M7-A4), 288 enteropathogenic isolates, eight quinolones; assay type: cell-based
[8] = system: Yersinia enterocolitica; experiment: as above; assay type: cell-based
[9] = system: Shigella spp.; experiment: as above; assay type: cell-based
[10] = system: Campylobacter jejuni; experiment: MIC by agar dilution (NCCLS M7-A4), 288 enteropathogenic isolates, gemifloxacin and 15 other antimicrobials; conditions: Campylobacter jejuni
[11] = system: Aeromonas spp.; experiment: as above; assay type: cell-based; conditions: for MIC: Aeromonas
[12] = system: Campylobacter jejuni; experiment: MIC by agar dilution (NCCLS M7-A4), 5% sheep blood, microaerophilic 48 h; assay type: cell-based
[13] = system: Hafnia alvei; experiment: MIC by agar dilution (NCCLS M7-A4), 288 enteropathogenic isolates, eight quinolones; assay type: cell-based
[14] = system: Salmonella spp.; experiment: MIC by agar dilution (NCCLS M7-A4), 288 enteropathogenic isolates, gemifloxacin and 15 other antimicrobials; assay type: cell-based
[15] = system: Yersinia enterocolitica; experiment: as above; assay type: cell-based; conditions: Yersinia enterocolitica
[16] = system: Enterococcus faecalis; experiment: MIC by agar macrodilution (NCCLS), 373 Gram positive isolates, Athens 1998; assay type: cell-based
[17] = system: Enterococcus faecium; experiment: as above; assay type: cell-based
[18] = 24 h, read-out: MIC (mg/L) Range
[19] = number of isolates at MIC […], n = 81
[20] = Penicillin-intermediate S. pneumoniae (n = 24), unit assumed
[21] = Penicillin-susceptible S. pneumoniae (n = 107), unit assumed
[22] = number of isolates at MIC […], n = 14
[23] = number of isolates with MIC […] µg/ml
[24] = number of isolates with MIC […]

CC[C@H]1OC(=O)[C@H](C)[C@@H](O[C@H]2C[C@@](C)(OC)[C@@H](O)[C@H](C)O2)[C@H](C)[C@@H](O[C@@H]2O[C@H](C)C[C@H](N(C)C)[C@H]2O)[C@](C)(O)C[C@@H](C)CN(C)[C@H](C)[C@@H](O)[C@]1(C)O [Azithromycin, azithromycin]
MIC50 ([1]; Streptococcus pneumoniae, Penicillin-intermediate S. pneumoniae (n = 24), read-out: MIC50): 1 µg/mL (≈ 1.34 µM) | MIC90 ([1]; Streptococcus pneumoniae, Penicillin-intermediate S. pneumoniae (n = 24), read-out: MIC90): ≥ 256 µg/mL | MIC50 ([1]; Streptococcus pneumoniae, Penicillin-susceptible S. pneumoniae (n = 107), read-out: MIC50): 0.75 µg/mL (≈ 1 µM) | MIC90 ([1]; Streptococcus pneumoniae, Penicillin-susceptible S. pneumoniae (n = 107), read-out: MIC90): 3 µg/mL (≈ 4.01 µM) | MIC90 ([2]; Penicillin intermediate (n = 17)): 1 µg/mL (≈ 1.34 µM) | MIC90 ([2]; Penicillin resistant (n = 4)): 0.06 µg/mL (≈ 0.0801 µM) | MIC90 ([2]; Penicillin susceptible (n = 69)): 0.06 µg/mL (≈ 0.0801 µM) | MIC50 ([3]; read-out: MIC50): 1 µg/mL (≈ 1.34 µM) | MIC90 ([3]; read-out: MIC90): 2 µg/mL (≈ 2.67 µM)

CCn1cc(C(=O)O)c(=O)c2ccc(C)nc21 [Nalidixic acid, nalidixic acid]
MIC50 ([4]; Aeromonas): 0.12 µg/mL (≈ 0.517 µM) | MIC90 ([4]; Aeromonas): 0.25 µg/mL (≈ 1.08 µM) | Non-susceptibility rate ([4]; Aeromonas spp.): 6.25% and 6.3% | % Susceptible ([4]; Aeromonas spp. (n = 16)): 93.75% | MIC [5, 18]: 1 to 2 mg/L (≈ 4.31 to 8.61 µM) | MIC ([5]; read-out: MIC (mg/L) 50%): 2 mg/L (≈ 8.61 µM) | MIC ([5]; read-out: MIC (mg/L) 90%): 2 mg/L (≈ 8.61 µM) | MIC [6, 18]: 1 to 2 mg/L (≈ 4.31 to 8.61 µM) | MIC ([6]; read-out: MIC (mg/L) 50%): 1 mg/L (≈ 4.31 µM) | MIC ([6]; read-out: MIC (mg/L) 90%): 2 mg/L (≈ 8.61 µM) | MIC [7]: > 128 µg/mL | MIC ([7]; Salmonella): > 128 µg/mL | MIC50 ([7]; Salmonella): 4 µg/mL (≈ 17.2 µM) | MIC90 ([7]; Salmonella): > 128 µg/mL | Non-susceptibility rate ([7]; Salmonella spp.): 27% | % Susceptible ([7]; Salmonella spp. (n = 106)): 73% | Non-susceptibility rate ([8]; Y. enterocolitica): 4.5% | MIC50 ([8]; Yersinia enterocolitica): 2 µg/mL (≈ 8.61 µM) | MIC90 ([8]; Yersinia enterocolitica): 2 µg/mL (≈ 8.61 µM) | % Susceptible ([8]; Yersinia enterocolitica (n = 22)): 95.5% | Non-susceptibility rate ([9]; Shigella spp.): 0% | % Susceptible ([9]; Shigella spp. (n = 21)): 100% | MIC50 ([9]; Shigella spp. (n = 21)): 1 µg/mL (≈ 4.31 µM) | MIC90 ([9]; Shigella spp. (n = 21)): 2 µg/mL (≈ 8.61 µM) | MIC Range ([9]; Shigella spp. (n = 21)): 1 to 2 µg/mL | MIC ([10]; read-out: MIC (mg/L) 50%): > 128 mg/L | MIC ([10]; read-out: MIC (mg/L) 90%): > 128 mg/L | Rates of non-susceptible microorganisms ([11]; Aeromonas spp.): 6% | MIC ([11]; read-out: MIC (mg/L) 50%): 0.12 mg/L (≈ 0.517 µM) | MIC ([11]; read-out: MIC (mg/L) 90%): 0.25 mg/L (≈ 1.08 µM) | Non-susceptibility rate ([12]; C. jejuni): 69.24% | MIC50 ([12]; Campylobacter jejuni): > 128 µg/mL | MIC90 ([12]; Campylobacter jejuni): > 128 µg/mL | % Susceptible ([12]; Campylobacter jejuni (n=91)): 30.76% | Non-susceptibility rate ([13]; H. alvei): 0% | MIC50 ([13]; Hafnia alvei): 2 µg/mL (≈ 8.61 µM) | MIC90 ([13]; Hafnia alvei): 2 µg/mL (≈ 8.61 µM) | % Susceptible ([13]; Hafnia alvei (n = 32)): 100% | MIC Range ([13]; Hafnia alvei (n = 32)): 1 to 2 µg/mL | MIC [14]: > 128 mg/L | MIC ([14]; S. hadar(2), isolates with MICs for ciprofloxacin ≥[…]): >128 mg/L | MIC ([14]; Salmonella): > 128 mg/L | Rates of non-susceptible microorganisms ([14]; Salmonella spp.): 27% | MIC ([14]; Salmonella, read-out: MIC (mg/L) 50%): 4 mg/L (≈ 17.2 µM) | MIC ([14]; Salmonella, read-out: MIC (mg/L) 90%): > 128 mg/L | Rates of non-susceptible microorganisms [15]: 5% | MIC ([15]; read-out: MIC (mg/L) 50%): 2 mg/L (≈ 8.61 µM) | MIC ([15]; read-out: MIC (mg/L) 90%): 2 mg/L (≈ 8.61 µM)

Teicoplanin
MIC50 ([16]; n = 81 isolates): 0.5 µg/mL | MIC90 ([16]; n = 81 isolates): 1 µg/mL | MIC Range ([16]; n = 81 isolates): 0.06 to 16 µg/mL | MIC distribution (µg/ml) 0.03 ([16]; number of isolates at MIC 0.03 µg/ml, n = 81): 0 | MIC distribution (µg/ml) 0.06 ([16]; number of isolates at MIC 0.06 µg/ml, n = 81): 2 | MIC distribution (µg/ml) 0.5 ([16]; number of isolates at MIC 0.5 µg/ml, n = 81): 35 | MIC distribution (µg/ml) 1 ([16]; number of isolates at MIC 1 µg/ml, n = 81): 27 | MIC distribution (µg/ml) 2 ([16]; number of isolates at MIC 2 µg/ml, n = 81): 4 | MIC distribution (µg/ml) 4 ([16]; number of isolates at MIC 4 µg/ml, n = 81): 0 | MIC distribution (µg/ml) 8 ([16]; number of isolates at MIC 8 µg/ml, n = 81): 0 | MIC distribution (µg/ml) 16 ([16]; number of isolates at MIC 16 µg/ml, n = 81): 1 | MIC distribution (µg/ml) 0.125 [16, 19]: 6 | MIC distribution (µg/ml) 0.25 [16, 19]: 6 | MIC distribution (µg/ml) ≤0.015 ([16]; number of isolates at MIC ≤[…], n = 81): 0 | MIC distribution (µg/ml) ≥32 ([16]; number of isolates at MIC ≥32 µg/ml, n = 81): 0 | MIC Range ([1]; Penicillin-intermediate S. pneumoniae (n = 24)): 0.023-0.125 | MIC50 [1, 20]: 0.064 µg/mL | MIC90 [1, 20]: 0.125 µg/mL | MIC Range ([1]; Penicillin-susceptible S. pneumoniae (n = 107)): 0.023-3 | MIC50 [1, 21]: 0.064 µg/mL | MIC90 [1, 21]: 0.38 µg/mL | MIC50 ([17]; n = 14 isolates): 0.5 µg/mL | MIC90 ([17]; n = 14 isolates): 1 µg/mL | MIC Range ([17]; n = 14 isolates): 0.25 to 4 µg/mL | MIC distribution (µg/ml) 0.03 ([17]; number of isolates at MIC 0.03 µg/ml, n = 14): 0 | MIC distribution (µg/ml) 0.06 ([17]; number of isolates at MIC 0.06 µg/ml, n = 14): 0 | MIC distribution (µg/ml) 0.5 ([17]; number of isolates at MIC 0.5 µg/ml, n = 14): 4 | MIC distribution (µg/ml) 1 ([17]; number of isolates at MIC 1 µg/ml, n = 14): 6 | MIC distribution (µg/ml) 2 ([17]; number of isolates at MIC 2 µg/ml, n = 14): 0 | MIC distribution (µg/ml) 4 ([17]; number of isolates at MIC 4 µg/ml, n = 14): 1 | MIC distribution (µg/ml) 8 ([17]; number of isolates at MIC 8 µg/ml, n = 14): 0 | MIC distribution (µg/ml) 16 ([17]; number of isolates at MIC 16 µg/ml, n = 14): 0 | MIC distribution (µg/ml) 0.125 [17, 22]: 0 | MIC distribution (µg/ml) 0.25 [17, 22]: 3 | MIC distribution (µg/ml) ≤0.015 ([17]; number of isolates at MIC ≤[…], n = 14): 0 | MIC distribution (µg/ml) ≥32 ([17]; number of isolates at MIC ≥32 µg/ml, n = 14): 0 | MIC50 [3]: 1 µg/mL | MIC90 [3]: 2 µg/mL | MIC Range [3]: 0.5 to 8 µg/mL | MIC distribution (µg/ml) 0.06 ([3]; number of isolates with MIC 0.06 µg/ml): 0 | MIC distribution (µg/ml) 0.5 ([3]; number of isolates with MIC 0.5 µg/ml): 26 | MIC distribution (µg/ml) 1 ([3]; number of isolates with MIC 1 µg/ml): 40 | MIC distribution (µg/ml) 2 ([3]; number of isolates with MIC 2 µg/ml): 17 | MIC distribution (µg/ml) 4 ([3]; number of isolates with MIC 4 µg/ml): 0 | MIC distribution (µg/ml) 8 ([3]; number of isolates with MIC 8 µg/ml): 2 | MIC distribution (µg/ml) >64 ([3]; number of isolates with MIC >[…] µg/ml): 0 | MIC distribution (µg/ml) 16 [3, 23]: 0 | MIC distribution (μg/ml) 32 [3, 23]: 0 | MIC distribution (μg/ml) 64 [3, 23]: 0 | MIC distribution (µg/ml) 0.125 [3, 24]: 0 | MIC distribution (µg/ml) 0.25 [3, 24]: 0 | MIC distribution (µg/ml) ≤0.03 ([3]; number of isolates with MIC ≤0.03 µg/ml): 0
